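Method: 48-hour compound exposure of cells in 96-well plates, five concentrations, linear interpolation of endpoints. GI50 marks 50% less growth. At the TGI there is no net growth.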
Assays:
Test in all cases: NCI-60 cell line screen, 48 h
K-562 leukemia = system: K-562 leukemia
HCC-2998 colon = system: HCC-2998 colon
UACC-257 melanoma = system: UACC-257 melanoma
UO-31 renal = system: UO-31 renal
RPMI-8226 leukemia = system: RPMI-8226 leukemia
SK-MEL-5 melanoma = system: SK-MEL-5 melanoma
A549 NSCLC = system: A549 NSCLC
NCI/ADR-RES ovarian = system: NCI/ADR-RES ovarian
OVCAR-4 ovarian = system: OVCAR-4 ovarian
HS 578T breast = system: HS 578T breast
T-47D breast = system: T-47D breast
KM12 colon = system: KM12 colon
MCF7 breast = system: MCF7 breast
IGROV1 ovarian = system: IGROV1 ovarian
SF-295 CNS = system: SF-295 CNS
MDA-MB-435 = system: MDA-MB-435
PC-3 prostate = system: PC-3 prostate
SW-620 colon = system: SW-620 colon
CCRF-CEM leukemia = system: CCRF-CEM leukemia
NCI-H226 lung = system: NCI-H226 lung
SF-268 CNS = system: SF-268 CNS
SK-MEL-28 melanoma = system: SK-MEL-28 melanoma
HCT-116 colon = system: HCT-116 colon
SN12C renal = system: SN12C renal
OVCAR-8 ovarian = system: OVCAR-8 ovarian
MALME-3M melanoma = system: MALME-3M melanoma
CAKI-1 renal = system: CAKI-1 renal
MOLT-4 leukemia = system: MOLT-4 leukemia
HOP-92 NSCLC = system: HOP-92 NSCLC
NCI-H23 lung = system: NCI-H23 lung
OVCAR-5 ovarian = system: OVCAR-5 ovarian
HCT-15 colon = system: HCT-15 colon
HOP-62 NSCLC = system: HOP-62 NSCLC
RXF 393 renal = system: RXF 393 renal
ACHN renal = system: ACHN renal
NCI-H522 lung = system: NCI-H522 lung
SNB-75 CNS = system: SNB-75 CNS
HL-60(TB) leukemia = system: HL-60(TB) leukemia
UACC-62 melanoma = system: UACC-62 melanoma
NCI-H460 lung = system: NCI-H460 lung
A498 renal = system: A498 renal
SF-539 CNS = system: SF-539 CNS
EKVX NSCLC = system: EKVX NSCLC
LOX IMVI melanoma = system: LOX IMVI melanoma
HT29 colon = system: HT29 colon
COLO 205 colon = system: COLO 205 colon
DU-145 prostate = system: DU-145 prostate
TK-10 renal = system: TK-10 renal
SNB-19 CNS = system: SNB-19 CNS
SR leukemia = system: SR leukemia
OVCAR-3 ovarian = system: OVCAR-3 ovarian
U251 CNS = system: U251 CNS
SK-OV-3 ovarian = system: SK-OV-3 ovarian
BT-549 breast = system: BT-549 breast
786-0 renal = system: 786-0 renal

CCCN(CCC)c1ccc(C=O)c(OC)c1
GI50 (K-562 leukemia): 19.2 µM
TGI (K-562 leukemia): > 100 µM
GI50 (HCC-2998 colon): 24.9 µM
TGI (HCC-2998 colon): > 100 µM
GI50 (UACC-257 melanoma): 18.5 µM
TGI (UACC-257 melanoma): 61.2 µM
GI50 (UO-31 renal): 16.5 µM
TGI (UO-31 renal): > 100 µM
GI50 (RPMI-8226 leukemia): 58.6 µM
TGI (RPMI-8226 leukemia): > 100 µM
GI50 (SK-MEL-5 melanoma): 14.5 µM
TGI (SK-MEL-5 melanoma): 29.3 µM
GI50 (A549 NSCLC): 28.3 µM
TGI (A549 NSCLC): > 100 µM
GI50 (NCI/ADR-RES ovarian): 28.9 µM
TGI (NCI/ADR-RES ovarian): > 100 µM
GI50 (OVCAR-4 ovarian): 19.4 µM
TGI (OVCAR-4 ovarian): 91.7 µM
GI50 (HS 578T breast): 15.5 µM
TGI (HS 578T breast): 94.4 µM
GI50 (T-47D breast): 12.5 µM
TGI (T-47D breast): 57.5 µM
GI50 (KM12 colon): 23.7 µM
TGI (KM12 colon): 83.8 µM
GI50 (MCF7 breast): 19.1 µM
TGI (MCF7 breast): 81.3 µM
GI50 (IGROV1 ovarian): 32.8 µM
TGI (IGROV1 ovarian): > 100 µM
GI50 (SF-295 CNS): 15.8 µM
TGI (SF-295 CNS): 64.5 µM
GI50 (MDA-MB-435): 20 µM
TGI (MDA-MB-435): 78.9 µM
GI50 (PC-3 prostate): 29.1 µM
TGI (PC-3 prostate): > 100 µM
GI50 (SW-620 colon): 22.9 µM
TGI (SW-620 colon): > 100 µM
GI50 (CCRF-CEM leukemia): 24.4 µM
TGI (CCRF-CEM leukemia): > 100 µM
GI50 (NCI-H226 lung): 28.5 µM
TGI (NCI-H226 lung): > 100 µM
GI50 (SF-268 CNS): 22 µM
TGI (SF-268 CNS): > 100 µM
GI50 (SK-MEL-28 melanoma): 21.3 µM
TGI (SK-MEL-28 melanoma): 83.9 µM
GI50 (HCT-116 colon): 25.5 µM
TGI (HCT-116 colon): > 100 µM
GI50 (SN12C renal): 32.7 µM
TGI (SN12C renal): > 100 µM
GI50 (OVCAR-8 ovarian): 27.5 µM
TGI (OVCAR-8 ovarian): > 100 µM
GI50 (MALME-3M melanoma): 18.7 µM
TGI (MALME-3M melanoma): 64.6 µM
GI50 (CAKI-1 renal): 22.7 µM
TGI (CAKI-1 renal): 80.4 µM
GI50 (MOLT-4 leukemia): 11.9 µM
TGI (MOLT-4 leukemia): 40.4 µM
GI50 (HOP-92 NSCLC): 13.3 µM
TGI (HOP-92 NSCLC): 86.7 µM
GI50 (NCI-H23 lung): 22.2 µM
TGI (NCI-H23 lung): > 100 µM
GI50 (OVCAR-5 ovarian): 19.5 µM
TGI (OVCAR-5 ovarian): > 100 µM
GI50 (HCT-15 colon): 24.1 µM
TGI (HCT-15 colon): > 100 µM
GI50 (HOP-62 NSCLC): 32 µM
TGI (HOP-62 NSCLC): > 100 µM
GI50 (RXF 393 renal): 26.9 µM
TGI (RXF 393 renal): > 100 µM
GI50 (ACHN renal): 21.4 µM
TGI (ACHN renal): > 100 µM
GI50 (NCI-H522 lung): 18.1 µM
TGI (NCI-H522 lung): 67.3 µM
GI50 (SNB-75 CNS): 16.4 µM
TGI (SNB-75 CNS): 95.9 µM
GI50 (HL-60(TB) leukemia): 12.4 µM
TGI (HL-60(TB) leukemia): 38 µM
GI50 (UACC-62 melanoma): 16.3 µM
TGI (UACC-62 melanoma): 55.4 µM
GI50 (NCI-H460 lung): 24 µM
TGI (NCI-H460 lung): > 100 µM
GI50 (A498 renal): 1.37 µM
TGI (A498 renal): 7.79 µM
GI50 (SF-539 CNS): 26 µM
TGI (SF-539 CNS): > 100 µM
GI50 (EKVX NSCLC): 16.1 µM
TGI (EKVX NSCLC): 76.1 µM
GI50 (LOX IMVI melanoma): 25.8 µM
TGI (LOX IMVI melanoma): > 100 µM
GI50 (HT29 colon): 17 µM
TGI (HT29 colon): 70.8 µM
GI50 (COLO 205 colon): 22.3 µM
TGI (COLO 205 colon): 63.4 µM
GI50 (DU-145 prostate): 26.6 µM
TGI (DU-145 prostate): > 100 µM
GI50 (TK-10 renal): 24.2 µM
TGI (TK-10 renal): 86.1 µM
GI50 (SNB-19 CNS): 29.4 µM
TGI (SNB-19 CNS): > 100 µM
GI50 (SR leukemia): 10.7 µM
TGI (SR leukemia): 34.5 µM
GI50 (OVCAR-3 ovarian): 15.1 µM
TGI (OVCAR-3 ovarian): 33.9 µM
GI50 (U251 CNS): 28.1 µM
TGI (U251 CNS): > 100 µM
GI50 (SK-OV-3 ovarian): 25.8 µM
TGI (SK-OV-3 ovarian): > 100 µM
GI50 (BT-549 breast): 22 µM
TGI (BT-549 breast): 80.2 µM
GI50 (786-0 renal): 29.4 µM
TGI (786-0 renal): > 100 µM

Source: PubChem BioAssay (NCI)
